Test results taken from article PMC2033546, “Effects of somatostatin analogue RC-160 and bombesin/gastrin-releasing peptide antagonists on the growth of human small-cell and non-small-cell lung carcinomas in nude mice” (British Journal of Cancer, 1994).
Where no end group is shown, it is not given here.

How the values were obtained:
EGF receptors = conditions: various cancer lines and cancer specimens; ref Liebow et al., 1992; cited from earlier work
From the text: (§1) Br. J. Cancer (1994). 70, 886 892 ? Macmillan Press Ltd..

human SCLC cell line H69 = test: [3H]Thymidine incorporation assay in H69 cells; type: cell-based; conditions: 3 days; for [3H]thymidine incorporation into DNA of H69 cells (in words): RC-160 0.001 to 10.0 µg/ml, 5 days, RC-3005 or RC-3009 5.0 and 25.0 µg/ml; for [3H]Thymidine incorporation: Table V, mean s.e.
From the text: Br. J. Cancer (1994). 70, 886 892 ? Macmillan Press Ltd.. […] Bombesin GRP antagonists. […] Lung carcinoma is the leading cause of cancer-related deaths in the western world. It is estimated that in 1992 there were approximately 168,000 new cases of lung cancer in the US and that about 146,000 deaths occurred from this disease (Boring et al., 1992). […] The growth factors such as bombesin/gastrin-releasing pep- tide (GRP), epidermal growth factor, (EGF), transforming growth factor a (TGF-x) and insulin-like growth factor I(IGF-I) appear to play a role in the proliferation and pro- gression of lung cancer (Cuttitta et al., 1985; Veale et al., 1987; Minuto et al., 1988; Siegfried & Owens, 1988; Macaulay et al., 1990; Tateishi et al., 1991; Damstrup et al., 1992; Sethi & Rozengurt, 1992; Rabiasz et al., 1992; Moody & Cuttitta, 1993). […] Tpi is 2,3,4,9-tetrahydro- Correspondence: A.V. Schally (151). VA Medical Center, 1601 Per- dido Street. New Orleans, LA 70146. USA. Received 1 March 1994; and in revised form 5 July 1994. Br. J. Cancer (1994), 70, 886-892 C Macmillan Press Ltd., 1994 PEPTIDE ANALOGUES IN LUNG CANCER 8U7 lH-pyrido [3,4bjindol-3-carboxylic acid, a conformationally constrained secondary amine derivate of tryptophan and Tac is thiazolidine-4-carboxylic acid. […] Animals Male athymic NCr nulmu nude mice, approximately 6 weeks old on arrival, were obtained from the NCI (Bethesda, MD, USA) and maintained under pathogen-limited conditions. Cell lines The human SCLC cell line NCI-H69, was obtained from the American Type Cell Culture (ATCC), Rockville, MD, USA and the non-SCLC cell line NCI-H157, from Dr H. Oie, NCI-Navy Medical Oncology Branch, Bethesda, MD, USA. These cell lines were cultured in RPMI-1640 medium supple- mented with 4 mM L-glutamine, 50 units ml-I penicilln G sodium, SOigml-' streptomycin sulphate, 0.125pgml-' amphotericin B and 10% fetal bovine serum at 3TC in a humidified 95% air/5% carbon dioxide atmosphere. CeLs were passaged weekly and routinely monitored for myco- plasma contamination using a detection kit (Boehringer- Mannheim, Mannheim, Germany). All culture media com- ponents were purchased from Gibco (Grand Island, NY, USA). Receptor assays Preparation of membranes for receptor studies was described previously (Halmos et al., 1993). Iodinated EGF and IGF-I were purchased from Amersham (Arlington Heights, IL, USA). Radioiodination of other peptides and receptor bind- ing of EGF, IGF-I, somatostatin and bombesin/GRP were performed as previously described (Srkalovic et al., 1989; Szepeshazi et al., 1992). Complete displacement assays on tumour membranes were done only once because of the shortage of tumour material. The LIGAND PC computerised curve-fitting programme of Munson and Rodbard (1980) was used to determine the types of receptor binding, dissociation constant (Kd) values, and the maximal binding capacity (BDj) of receptors. In order to determine the specificity of the binding sites for radiolabelled EGF, IGF-I, somatostatin and bombesin to lung cancer membranes, various structuraly related and unrelated peptides were tested for their ability to inhibit the binding of the tracers. Histological procedure The histological procedures were the same as described previously (Szepeshazi et al., 1991, 1992). The number of mitotic and apoptotic cells per 1,000 cells was determined, and the percentage area of necrosis in tumour sections was examined using the point-counting method (Szepeshazi et al., 1991, 1992), in which the crossing points of an ocular net that coincide with necrosis in various sections are counted. Radiommunoassays Serum levels of growth hormone were determined by double- antibody radioimmunoassay (RIA) using materials supplied by the National Hormone and Pituitary Program of the National Institute of Diabetes and Digestive and Kidney Diseases (NIDDK).

IGF-I levels = conditions: patients with SCLC; ref Macauley et al. (1991); cited from earlier work
From the text: as §1

| Substance | Effect on phosphorylation of EGF receptors (in words) (EGF receptors) | [3H]thymidine incorporation into DNA of H69 cells (in words) (human SCLC cell line H69) | [3H]Thymidine incorporation (human SCLC cell line H69; 1.0 µg/ml) | IGF-I levels (in words) (IGF-I levels) | [3H]Thymidine incorporation (human SCLC cell line H69; 5.0 µg/ml, *P<0.05 vs control) |
| --- | --- | --- | --- | --- | --- |
| gastrin-releasing peptide (VPLPAGGGTVLTKMYPRGNHWAVGHLM; ends and bridges not checked; UniProt P07492 24-50, looked up) [GRP] | enhance the phosphorylation of EGF receptors | – | – | – | – |
| His(Bz)2D, D-Trp23, D-Phe2, Leu'- GRP(14-27) [RC-3005] | – | significantly suppressed | 100.0 2.0 per cent of control | – | – |
| octreotide | – | – | – | reduced IGF-I levels | – |
| D-Trp23, D-Phe5, Leu27- GRP(14-27) [RC-3009] | – | significantly suppressed | 98.4 0.8 per cent of control | – | 92.7 2.0* per cent of control |
